Reference: the supplement of paper PMC11451515

System: NOMO1
Test: cell viability relative to DMSO control; higher = less cytotoxic
Conditions: 48 h
Summary of the method: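 Leukemia cells (NOMO1 or SEM, 500 cells/well; P12-Ichikawa, 1000 cells/well) were seeded in 5 μl in 1536-well plates after at least four passages of adaptation to each medium. They received library compounds in DMSO by pin dosing, 11 threefold points from 47 μM to 0.79 nM. Luminescence with CellTiter-Glo One was read after 48 h at 37°C. Viability is stated per plate relative to DMSO wells, with cell-free wells as background.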

[1] = HPLM + 10% dialyzed FBS, 0.000781 µM
[2] = HPLM + 10% dialyzed FBS, 0.00234 µM
[3] = HPLM + 10% dialyzed FBS, 0.00702 µM
[4] = HPLM + 10% dialyzed FBS, 0.0211 µM
[5] = HPLM + 10% dialyzed FBS, 0.0632 µM
[6] = HPLM + 10% dialyzed FBS, 0.19 µM
[7] = HPLM + 10% dialyzed FBS, 0.569 µM
[8] = HPLM + 10% dialyzed FBS, 1.71 µM
[9] = HPLM + 10% dialyzed FBS, 5.12 µM
[10] = HPLM + 10% dialyzed FBS, 15.4 µM
[11] = HPLM + 10% dialyzed FBS, 46.1 µM
[12] = RPMI 5 mM glucose + 10% FBS, 0.000781 µM
[13] = RPMI 5 mM glucose + 10% FBS, 0.00234 µM
[14] = RPMI 5 mM glucose + 10% FBS, 0.00702 µM
[15] = RPMI 5 mM glucose + 10% FBS, 0.0211 µM
[16] = RPMI 5 mM glucose + 10% FBS, 0.0632 µM
[17] = RPMI 5 mM glucose + 10% FBS, 0.19 µM
[18] = RPMI 5 mM glucose + 10% FBS, 0.569 µM
[19] = RPMI 5 mM glucose + 10% FBS, 1.71 µM
[20] = RPMI 5 mM glucose + 10% FBS, 5.12 µM
[21] = RPMI 5 mM glucose + 10% FBS, 15.4 µM
[22] = RPMI 5 mM glucose + 10% FBS, 46.1 µM
[23] = RPMI 5 mM glucose + 10% dialyzed FBS, 0.000781 µM
[24] = RPMI 5 mM glucose + 10% dialyzed FBS, 0.00234 µM
[25] = RPMI 5 mM glucose + 10% dialyzed FBS, 0.00702 µM
[26] = RPMI 5 mM glucose + 10% dialyzed FBS, 0.0211 µM
[27] = RPMI 5 mM glucose + 10% dialyzed FBS, 0.0632 µM
[28] = RPMI 5 mM glucose + 10% dialyzed FBS, 0.19 µM
[29] = RPMI 5 mM glucose + 10% dialyzed FBS, 0.569 µM
[30] = RPMI 5 mM glucose + 10% dialyzed FBS, 1.71 µM
[31] = RPMI 5 mM glucose + 10% dialyzed FBS, 5.12 µM
[32] = RPMI 5 mM glucose + 10% dialyzed FBS, 15.4 µM
[33] = RPMI 5 mM glucose + 10% dialyzed FBS, 46.1 µM

Structure (SMILES) | cell viability [1] | cell viability [2] | cell viability [3] | cell viability [4] | cell viability [5] | cell viability [6] | cell viability [7] | cell viability [8] | cell viability [9] | cell viability [10] | cell viability [11] | cell viability [12] | cell viability [13] | cell viability [14] | cell viability [15] | cell viability [16] | cell viability [17] | cell viability [18] | cell viability [19] | cell viability [20] | cell viability [21] | cell viability [22] | cell viability [23] | cell viability [24] | cell viability [25] | cell viability [26] | cell viability [27] | cell viability [28] | cell viability [29] | cell viability [30] | cell viability [31] | cell viability [32] | cell viability [33]
C\C1=C(\C=C(C#N)/C(=O)N1)C2=C[N]3C=CN=C3C=C2 | 69.8% | 82.7% | 88.2% | 79.1% | 80.9% | 79.9% | 83.7% | 89.3% | 97.9% | 94.4% | 93% | 85.2% | 82.2% | 80.6% | 80.9% | 84.5% | 80.1% | 94.5% | 72.7% | 81.1% | 84.8% | 78.9% | 78.8% | 81.1% | 88.1% | 83.4% | 84.2% | 84.5% | 90.2% | 92% | 91.3% | 85.3% | 74.6%
CCC(C)(C)c1ccc(CC(C)CN2C[C@@H](C)O[C@@H](C)C2)cc1 (some centres not stated) | 87.4% | 91.8% | 87.9% | 82% | 93.3% | 84.8% | 97% | 80.9% | 93.6% | 87.1% | 87.9% | 71.5% | 74.7% | 73.5% | 77.9% | 77.5% | 76.5% | 75.8% | 82.3% | 77.9% | 80.7% | 77.5% | 69.8% | 87.9% | 78.8% | 77% | 83.4% | 82% | 90.2% | 84% | 85.2% | 86.2% | 88%
FC(F)c1nc2ccccc2n1-c1nc(N2CCOCC2)nc(N2CCOCC2)n1 | 104% | 93.8% | 92% | 60.1% | 65.3% | 42.6% | 43.9% | 36.3% | 41.5% | 27.7% | 30.6% | 85.4% | 92.2% | 87.9% | 94.5% | 78% | 67.8% | 52.6% | 62.8% | 45.7% | 60.2% | 31.2% | 86.5% | 102% | 97.1% | 97.5% | 76.5% | 71% | 54.7% | 52.9% | 50.2% | 43.9% | 34.4%
O=C(Nc1cc2cc[nH]c2cn1)c1ccccc1 | 97.5% | 116% | 94.4% | 122% | 108% | 102% | 123% | 103% | 21% | 4.39% | 0.639% | 95.6% | 101% | 97.2% | 110% | 100% | 108% | 99.4% | 88.4% | 54.6% | 18.9% | 2.79% | 96.6% | 104% | 102% | 98.5% | 103% | 105% | 105% | 94% | 59.1% | 45.9% | 7.31%
